Patent publication US12005056B2, “Centrally-active ghrelin agonist and medical uses thereof” (Helsinn Healthcare SA, priority 2018, dated 2024)
Entries after “also recorded” stand apart in the source; their conditions may differ. Like-named read-outs stand apart in the source and are kept apart here.

Columns and labels:
[1] = system: bortezomib-treated Wistar rats; experiment: Bortezomib study, therapeutic paradigm; conditions: for Allodynia / Body Weight / DRG/nerve pathology / IENFD / NCS: Bortezomib Therapeutic setting, 0.2 mg/kg (i.v.) 3 times/week for 8 weeks
[2] = system: oxaliplatin-treated Balb/C mice; conditions: for Body Weight / IENFD / NCS: Oxaliplatin 6 mg/kg (i.p.) twice weekly for 4 weeks
[3] = target: T1, human GHSR1 receptor (Homo sapiens, UniProt Q92847); experiment: [125I]Ghrelin binding assay on membranes from BHK cells; conditions: 1 nM [125I]Ghrelin, BHK cell membranes
T1 construct: expressed in transfected cells; host or cells: BHK cells (membrane preparation)
T1 sequence (Q92847 whole entry): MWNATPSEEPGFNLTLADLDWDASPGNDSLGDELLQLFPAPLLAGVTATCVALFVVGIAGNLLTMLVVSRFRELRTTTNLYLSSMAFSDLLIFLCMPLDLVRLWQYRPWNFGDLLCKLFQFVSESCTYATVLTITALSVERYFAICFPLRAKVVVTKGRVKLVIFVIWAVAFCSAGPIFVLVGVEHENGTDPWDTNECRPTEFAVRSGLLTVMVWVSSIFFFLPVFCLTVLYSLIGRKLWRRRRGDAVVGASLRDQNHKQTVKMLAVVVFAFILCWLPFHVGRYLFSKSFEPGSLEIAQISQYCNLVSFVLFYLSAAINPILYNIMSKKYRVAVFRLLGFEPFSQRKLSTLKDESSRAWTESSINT
Experimental: In additional binding study, compound A was dissolved in DMSO and diluted with water in different range of concentrations. Membrane protein prepared from BHK cells stably expressing human GHSR1 receptor were used for binding assay. The membrane was diluted in assay buffer to yield 20 μg/well in 120 μl. The binding assay was set up in 96 well plate as following: 120 μl [^125I]Ghrelin (final concentration 1 nM) and 15 μl compound A (10×) diluted in the assay buffer. The reaction mixture was incubated at room temperature for 30 minutes before terminating by quick filtration onto GF/B filtration plate pre-soaked in 0.3% PEI using cell harvester (Perkin Elmer). The filter was washed three times and dried at 37° overnight. The radioactivity bound to filter membrane was measured with MicroBeta Trilux (Perkin Elmer).

[4] = target: T2, human GHSR1a receptor (Homo sapiens, UniProt Q92847); experiment: FLIPR assay in HEK293 cells stably expressing human GHSR1a receptor; type: cell-based; conditions: read-out: EC50, agonist activity in FLIPR assay
T2 construct: expressed in transfected cells; host or cells: HEK293
T2 sequence (Q92847 whole entry): as above
Experimental: HEK293 cells stably expressing human GHSR1a receptor were used in FLIPR assay. Cells were maintained under standard procedures. One day prior the test, cells were seeded at a density of 1.5×10^4/well in a Matrigel® coated 384-well plate with 30 μl of complete DMEM medium, and incubated at 37° C. in 5% CO2 for 22-26 hrs. On the test day, 4× loading dye was added into each well (10 μl per well for 384 well plates). Assay plates were incubated at 37° C. in the dark for 30 minutes. Then the dye content was removed by centrifugation at 300 rpm for 30 s. 40 μL HBSS/Hepes with 1 mM probenicid was added with Platemate Matrix (low speed setting, Thermo). The plate was then placed in FLIPR Tetra (Molecular Device) and 5× working concentrations of agonists were added by FLIPR. Fluorescence signal was detected with FLIPR at room temperature according to standard settings.

[5] = system: healthy male subjects; type: in vivo, human; conditions: for maximal decrease of mean heart rate (Holter-ECG): 1 to 3 hours after administration
Experimental: The study was performed as a single-center, randomized, double-blind, placebo-controlled, Phase 1 study with healthy male subjects receiving single ascending oral doses of Compound A. A dose-escalation design was considered to be appropriate to investigate the safety and tolerability of this new compound in the first single dose study in humans. Within each cohort six subjects were to receive a single oral dose of Compound A and two subjects were to receive placebo on Day 1.
Each subject received a single oral dose of either Compound A or placebo in a randomized fashion. Study drug administrations were performed in the morning of Day 1. The proper administration of the study medication was supervised by the Investigator or delegate. This included checking the oral and buccal cavity. The study medication or placebo was supplied as powder-containing gelatin capsules; they were administered orally together with 240 mL water. Subjects were dosed in a fasted state (no food was taken for at least 8 hours prior to dosing). Access to food was restricted until 4 hours after dosing.
12-lead ECGs were recorded on Day −1 and from pre-dose on Day 1 to 72 hours after drug administration. In addition, a Holter-ECG was recorded from about at least 12 hours prior to the planned dosing until 24 hours post-dose. Triplicate extracts (1 min interval) were taken at the same time-points when paper ECGs were taken. Vital signs (blood pressure, pulse rate, body temperature [auricular measurement]) were measured on Day −1 and then from pre-dose on Day 1 to 72 hours post-dose. 12-lead ECGs were recorded as scheduled in the study flow chart using the ECG system (Cardiosoft, Marquette Hellige). Triplicate ECGs were recorded at 36, 48 and 72 hours post-dose. The ECGs were recorded in supine position after at least 5 minutes rest or after at least 15 minutes rest at time points when ECG extracts from the Holter-ECG were done (to allow for a sufficient time period). ECGs were plotted with a paper speed of 50 mm/s and 10 mm/mV amplitude, with 10 seconds recording duration for all leads and at least 3 complexes, but preferably 5 complexes in each lead. The following ECG parameters were evaluated: heart rate, PR interval, QRS interval, QT interval, QTcB (using Bazett's correction formula) and QTcF (using Fridericia's correction formula).

[6] = therapeutic setting, all doses, monohydrochloride salt

In the case of “3-(1-(2,3-dichloro-4-methoxyphenyl) ethyl)-1-methyl-1-(1,3,3-trimethylpiperidin-4-yl)urea monohydrochloride salt [Compound A]”, the Allodynia ([1]; Compound A dose 3) is reported as “+”, the “Body Weight” value ([1]; Compound A dose 3) is reported as “+/−” and the DRG/nerve pathology ([1]; Compound A dose 3) is reported as “−”. The IENFD ([1]; Compound A dose 3) was “−”, the NCS ([1]; Compound A dose 3) was “+/−” and the Allodynia ([1]; Compound A dose 10) was “+”. The “Body Weight” value ([1]; Compound A dose 10) was “+/−”, the DRG/nerve pathology ([1]; Compound A dose 10) was “+/−” and the IENFD ([1]; Compound A dose 10) was “−”. For the same substance, the NCS ([1]; Compound A dose 10) was “+/−”, the Allodynia ([1]; Compound A dose 30) was “+” and the “Body Weight” value ([1]; Compound A dose 30) was “+/−”. For the same substance, the DRG/nerve pathology ([1]; Compound A dose 30) was “+/−”, the IENFD ([1]; Compound A dose 30) was “−” and the NCS ([1]; Compound A dose 30) was “−”. The “protective effects on DRG/nerve pathology” value ([1]; therapeutic setting) was “not present”, the “allodynia vs CTRL (mechanical threshold)” value ([1]; therapeutic setting, after 5 weeks and at the end of treatment, all doses) was “protected” and the “caudal NCV and potential amplitude vs CTRL” value [1, 6] was “statistically significant reduction”. The “digital NCV vs CTRL” value [1, 6] was “statistically significant reduction only the animals treated with bortezomib alone; also recorded: Only the animals treated with bortezomib alone showed a significant reduction”, the “body weight vs. CTRL and bortezomib groups” value ([1]; therapeutic setting, end of treatment, Compound A 30) was “significant increase in body weight” and the “body weight vs. CTRL and bortezomib groups” value ([1]; therapeutic setting, following 10 days co-treatment) was “significant increase of body weight”. For the same substance, the “digital potential amplitude vs CTRL” value ([1]; therapeutic setting, highest dose of Compound A) was “reduction in potential amplitude”, the “improvement of digital potential amplitude vs. oxaliplatin-treated mice” value ([2]; Compound A 30 mg/kg) was 33+/−9% and the digital potential amplitude ([2]; Compound A 30 mg/kg (FIG. 2B)) was “able to normalize”. For the same substance, the “oxaliplatin-induced decrease in digital and caudal NCV” value ([2]; Compound A 10 and 30 mg/kg) was “significantly prevented”, the “IENFD in footpads vs. vehicle treated mouse values” ([2]; Compound A 10 and 30 mg/kg, monohydrochloride salt) was “completely normalized; also recorded: completely normalised” and the “weight loss compared to oxaliplatin treated mice” value ([2]; Compound A 10 or 30 mg/kg) was “less weight loss”. For the same substance, the “Body Weight” value ([2]; Compound A dose 10) was “+”, the IENFD ([2]; Compound A dose 10) was “+” and the NCS ([2]; Compound A dose 10) was “+”. For the same substance, the “Body Weight” value ([2]; Compound A dose 30) was “+”, the IENFD ([2]; Compound A dose 30) was “+” and the NCS ([2]; Compound A dose 30) was “+”. For the same substance, the “degenerative changes in DRG and sciatic nerve” value ([2]; mouse, in vivo) was “did not cause any degenerative changes”, the Ki [3] was 1.42 ± 0.35 nM and the EC50 [4] was 1.25 ± 0.42 nM. For the same substance, the “time after dosing at which pre-dose heart rate levels were reached again” value ([5]; 0.1 to 10 mg single oral dose) was 6 h, the pulse rate ([5]; groups treated with Compound A) was “decrease” and the “maximal decrease of mean heart rate (Holter-ECG)” value (shortened to “maximal decrease”) ([5]; single oral dose 0.1 mg) was 5.1 bpm. For the same substance, the “maximal decrease” value ([5]; single oral dose 0.3 mg) was 6.8 bpm, the “maximal decrease” value ([5]; single oral dose 1.0 mg) was 15.9 bpm and the “maximal decrease” value ([5]; single oral dose 10 mg) was 18.3 bpm.
